Structures are written as SMILES.

Consider three compounds from ChEMBL document CHEMBL5725466, “N-cyanomethylamides as inhibitors of janus kinase” (2017).

The target in assay [1] is T1, Tyrosine-protein kinase JAK3 (Homo sapiens, UniProt P52333).
T1 sequence (P52333 whole entry): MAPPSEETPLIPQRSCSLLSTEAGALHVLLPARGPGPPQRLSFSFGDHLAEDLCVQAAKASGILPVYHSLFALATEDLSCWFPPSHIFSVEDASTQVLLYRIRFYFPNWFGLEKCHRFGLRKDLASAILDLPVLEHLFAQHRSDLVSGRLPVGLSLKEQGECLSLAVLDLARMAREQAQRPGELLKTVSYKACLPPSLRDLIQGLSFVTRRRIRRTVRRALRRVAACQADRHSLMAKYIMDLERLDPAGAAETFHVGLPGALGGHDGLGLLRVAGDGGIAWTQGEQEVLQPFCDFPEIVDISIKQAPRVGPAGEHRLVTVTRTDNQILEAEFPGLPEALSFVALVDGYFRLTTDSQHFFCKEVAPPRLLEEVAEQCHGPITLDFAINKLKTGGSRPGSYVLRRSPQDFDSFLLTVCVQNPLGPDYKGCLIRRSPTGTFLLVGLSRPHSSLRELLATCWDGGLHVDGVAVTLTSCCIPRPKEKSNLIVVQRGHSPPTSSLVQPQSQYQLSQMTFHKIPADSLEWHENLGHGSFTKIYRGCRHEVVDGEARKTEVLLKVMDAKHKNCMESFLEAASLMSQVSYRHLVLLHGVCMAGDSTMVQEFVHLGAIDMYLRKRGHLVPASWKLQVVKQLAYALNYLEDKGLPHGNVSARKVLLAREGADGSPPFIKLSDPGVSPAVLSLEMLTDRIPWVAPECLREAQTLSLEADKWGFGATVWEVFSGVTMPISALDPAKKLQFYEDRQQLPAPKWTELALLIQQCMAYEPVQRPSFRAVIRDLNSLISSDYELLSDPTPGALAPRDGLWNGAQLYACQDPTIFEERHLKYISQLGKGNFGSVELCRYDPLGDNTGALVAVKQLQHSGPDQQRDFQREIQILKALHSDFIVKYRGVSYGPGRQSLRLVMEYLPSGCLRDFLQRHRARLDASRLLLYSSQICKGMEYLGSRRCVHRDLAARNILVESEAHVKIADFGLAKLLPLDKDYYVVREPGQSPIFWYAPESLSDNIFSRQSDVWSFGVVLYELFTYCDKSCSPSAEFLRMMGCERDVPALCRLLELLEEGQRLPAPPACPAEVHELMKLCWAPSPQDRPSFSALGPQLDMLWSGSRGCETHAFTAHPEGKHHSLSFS
The assay is described as follows: (§1) In Vitro Assay: NCEs were screened using in vitro JAK (1, 2 and 3) kinase assay on ADP Glo platform (Promega). Fixed amount of recombinant purified human JAK (25 ng of JAK1 and 10 ng of JAK2 and JAK3 per reaction, from Life Technologies Ltd) were incubated with increasing concentration of NCEs in 1× kinase reaction buffer (40 mM Tris-Cl, pH7.5, 20 mM MgCl2, 0.1 mg/ml BSA and 50 μM DTT). Enzymatic reaction was initiated by adding a substrate cocktail containing 50 μM of ATP (final concentration) and 5 μg for JAK1 and 2.5 μg for JAK2 and JAK3 of polyGln4Tyr1 (Signal Chem) in total 25 μl of reaction in 96 well plate. The reaction was incubated at room temperature for 1 hr.After 1 hr of incubation equal volume (25 μl per reaction) of ADP Glo was added and incubated at room temperature for 40 min.This was followed by addition of kinase detection reagent (50 μl per reaction) and incubation at room temperature for 30 min. Finally, plate was read for luminescence at an integration time of 500 millisecond per well. On the technique in general: ADP-Glo turns the ADP formed in a reaction into a luminescent signal.

Assay [2] addresses Tyrosine-protein kinase JAK1 (Homo sapiens, UniProt P23458). The description is as §1.
The target of assay [3] is Tyrosine-protein kinase JAK2 (Homo sapiens, UniProt O60674). The assay is described as §1.
Tyrosine-protein kinase JAK2, sequence (O60674 whole entry): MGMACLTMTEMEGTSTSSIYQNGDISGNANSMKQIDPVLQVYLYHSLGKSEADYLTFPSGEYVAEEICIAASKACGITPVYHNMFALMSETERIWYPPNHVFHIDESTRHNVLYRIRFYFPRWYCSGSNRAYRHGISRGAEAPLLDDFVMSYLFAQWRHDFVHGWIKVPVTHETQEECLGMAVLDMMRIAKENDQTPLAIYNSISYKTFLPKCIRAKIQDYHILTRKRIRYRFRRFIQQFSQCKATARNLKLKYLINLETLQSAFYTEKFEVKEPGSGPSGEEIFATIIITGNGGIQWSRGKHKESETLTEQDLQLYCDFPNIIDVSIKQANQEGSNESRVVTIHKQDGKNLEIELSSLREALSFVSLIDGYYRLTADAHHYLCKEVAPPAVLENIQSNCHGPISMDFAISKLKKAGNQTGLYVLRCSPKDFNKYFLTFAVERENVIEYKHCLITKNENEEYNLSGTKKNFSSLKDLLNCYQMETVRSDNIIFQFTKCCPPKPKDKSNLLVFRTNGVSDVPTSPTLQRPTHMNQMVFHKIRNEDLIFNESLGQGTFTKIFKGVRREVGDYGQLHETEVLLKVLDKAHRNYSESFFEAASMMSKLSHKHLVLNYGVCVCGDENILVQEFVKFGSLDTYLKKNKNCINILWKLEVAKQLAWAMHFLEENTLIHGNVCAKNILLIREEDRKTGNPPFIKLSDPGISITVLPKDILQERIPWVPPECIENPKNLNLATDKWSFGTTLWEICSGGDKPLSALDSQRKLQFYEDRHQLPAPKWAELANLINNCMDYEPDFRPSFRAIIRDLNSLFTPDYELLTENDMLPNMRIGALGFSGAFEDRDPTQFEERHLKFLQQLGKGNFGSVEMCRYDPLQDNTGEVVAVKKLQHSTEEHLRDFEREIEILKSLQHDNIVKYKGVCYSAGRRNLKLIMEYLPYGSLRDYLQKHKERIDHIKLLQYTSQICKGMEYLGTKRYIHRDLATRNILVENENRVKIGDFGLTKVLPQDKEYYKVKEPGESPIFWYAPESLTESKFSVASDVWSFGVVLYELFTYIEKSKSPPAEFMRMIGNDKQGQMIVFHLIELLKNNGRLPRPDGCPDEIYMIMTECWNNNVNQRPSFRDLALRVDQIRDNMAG

Tyrosine-protein kinase JAK1, sequence (P23458 whole entry): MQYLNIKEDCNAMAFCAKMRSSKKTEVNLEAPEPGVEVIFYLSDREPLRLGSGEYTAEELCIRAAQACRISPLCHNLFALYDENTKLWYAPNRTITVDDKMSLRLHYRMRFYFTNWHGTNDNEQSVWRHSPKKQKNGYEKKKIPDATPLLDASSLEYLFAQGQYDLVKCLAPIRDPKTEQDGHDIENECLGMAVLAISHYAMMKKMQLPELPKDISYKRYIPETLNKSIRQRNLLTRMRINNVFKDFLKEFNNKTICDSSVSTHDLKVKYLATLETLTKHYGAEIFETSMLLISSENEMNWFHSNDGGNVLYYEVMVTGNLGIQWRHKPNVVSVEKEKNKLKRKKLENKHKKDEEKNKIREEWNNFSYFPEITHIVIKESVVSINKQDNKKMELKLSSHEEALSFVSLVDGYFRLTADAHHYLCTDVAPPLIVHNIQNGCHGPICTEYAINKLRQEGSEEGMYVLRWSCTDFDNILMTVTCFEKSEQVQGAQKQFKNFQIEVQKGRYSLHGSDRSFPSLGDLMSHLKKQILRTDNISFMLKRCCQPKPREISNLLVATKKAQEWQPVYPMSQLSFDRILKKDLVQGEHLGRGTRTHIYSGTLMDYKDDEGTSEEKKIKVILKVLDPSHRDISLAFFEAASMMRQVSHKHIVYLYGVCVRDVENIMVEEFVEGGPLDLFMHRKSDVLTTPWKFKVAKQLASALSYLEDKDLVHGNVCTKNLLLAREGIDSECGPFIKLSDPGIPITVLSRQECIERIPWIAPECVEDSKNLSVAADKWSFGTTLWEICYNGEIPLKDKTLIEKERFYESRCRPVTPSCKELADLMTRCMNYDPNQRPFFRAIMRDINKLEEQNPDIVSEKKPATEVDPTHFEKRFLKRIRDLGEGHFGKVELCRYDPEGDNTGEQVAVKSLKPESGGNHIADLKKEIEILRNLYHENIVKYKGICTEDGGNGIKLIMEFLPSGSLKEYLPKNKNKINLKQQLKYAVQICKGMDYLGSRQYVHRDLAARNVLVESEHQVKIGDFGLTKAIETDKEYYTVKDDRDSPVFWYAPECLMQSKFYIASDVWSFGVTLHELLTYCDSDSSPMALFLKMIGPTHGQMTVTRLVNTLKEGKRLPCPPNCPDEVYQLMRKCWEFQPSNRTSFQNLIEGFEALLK

On to `N#CCNC(=O)c1ccc(-c2ccnc(Nc3ccc(N4CCC(N5CCOCC5)CC4)cc3)n2)cc1`, for which the IC50 (commonly the midpoint of a concentration-inhibition curve) in assay [1] is 62.3 nM; in assay [2], 11.7 nM; in assay [3], 6.6 nM.

On to `N#CCNC(=O)c1ccc(-c2nc(Nc3ccc(N4CCC(N5CCOCC5)CC4)cc3)ncc2F)cc1`, for which the half-inhibitory concentration (IC50) in assay [1] was determined as 16.6 nM; in assay [2] it was 6.7 nM; in assay [3], 4.9 nM.

Turning to `N#CCNC(=O)c1ccc(-c2ccnc(Nc3ccc(N4CCC(C5=NCCN5)CC4)cc3)n2)cc1`, the IC50 in assay [1] amounted to 124 nM; in assay [2], 13 nM; in assay [3] it was 20 nM.
